# Molecular target: prostaglandin E2 receptor
# Assay: inhibition of [^3 H]-PGE2 receptor binding in rat uterus membrane fraction
# Settings: Table I; 5 nM [^3 H]-PGE2, rat uterus crude membrane fraction, pH 6.0, 1 hour at room temperature; read-out: IC50, inhibitory effects of PGE2 receptor binding in rat
# Procedure: (i) The measurement of the inhibition of [^3 H]-PGE2 receptor binding
# The standard assay mixture contained 5 nM [^3 H]-PGE2 (50 μl), test compounds (50 μl) and crude membrane fraction obtained from rat uterus (1.2 mg protein/ml, 100 μl) in a final volume of 200 μl (10 mM potassium phosphate pH 6.0, 0.1M NaCl (buffer A)). After incubation for 1 hour at room temperature, the reaction was stopped by the addition of 3 ml of ice-cold buffer A, after which the mixture was rapidly filtered through a Whatman GF/B glass filter. The radioactivity associated with the filter was measured in ACS II (Amarsham) by liquid scintillation counting. Percent inhibition of specific [^3 H]-PGE2 binding or IC50 value, the concentration required to compete with ^3 H-PGE2 receptor binding by 50% were calculated.
row,SMILES,IC50 [nM]
1,O=C(O)CCC/C=C\C1CCCC1CNS(=O)(=O)c1ccc(Br)cc1 (stereo not drawn),1800
2,Cc1ccc(S(=O)(=O)NCC2CCCC2/C=C\CCCC(=O)O)cc1 (stereo not drawn),8000
3,"Cc1ccc(S(=O)(=O)NC2C3CCC(C3)C2C/C=C\CCCC(=O)O)cc1 (racemic) [5 (b), a mixture of 7-[(1R,2S,3S, 4S)-3-tosylaminobicyclo[2.2.1]heptan-2-yl]-5Z-heptenoic acid and an isomer of (1S, 2S,3S,4R)]",3400
4,"Cc1ccc(S(=O)(=O)N[C@H]2C3CCC(CC3)[C@@H]2C/C=C\CCCC(=O)O)cc1 (relative stereo) [5 (a), 7-[(2S*,3S*)-3-tosylaminobicyclo[2.2.2]octan-2-yl]-5Z-heptenoic acid]",3600
5,"Cc1ccc(S(=O)(=O)N[C@H]2[C@H]3CC[C@H](C3)[C@@H]2C/C=C\CCCC(=O)O)cc1 (relative stereo) [5 (c), 7-[(1R*,2S*,3S*,4S*)-3-tosylaminobicyclo[2.2.1]heptan-2-yl]-5Z-heptenoic acid]",5700
6,"Cc1ccc(S(=O)(=O)N[C@H]2CCC[C@@H]2C/C=C\CCCC(=O)O)cc1 (relative stereo) [5 (g), 7-[(1R*,2S*)-2-tosylaminocyclopentyl-5Z-heptenoic acid]",3500
7,"O=C(O)CCC/C=C\C[C@H]1CCC[C@@H]1NS(=O)(=O)c1ccc(Br)cc1 (relative stereo) [5 (h), 7-[(1R*,2S*)-2-(4-bromophenylsulfonylamino)cyclopentyl]-5Z-heptenoic acid]",200
8,O=C(O)CCC/C=C\[C@@H]1CCC[C@@H](NS(=O)(=O)c2ccc(Br)cc2)C1 (relative stereo) [U.S. Pat. No. 5168101 1 (l)],2400
9,O=C(O)CCC/C=C\[C@@H]1CCC[C@H](NS(=O)(=O)c2ccc(Br)cc2)C1 (relative stereo) [U.S. Pat. No. 5168101 1 (m)],500
10,"CC1(C)[C@H]2C[C@H](NS(=O)(=O)c3ccccc3)[C@@H](C/C=C\CCCC(=O)O)[C@@H]1C2 [3 (a), 7-[(1S,2S,3S,5R)-3-phenylsulfonylamino-6,6-dimethylbicyclo[3.1.1]heptan-2-yl]-5Z-heptenoic]",7600
11,"CCc1ccc(S(=O)(=O)N[C@H]2C[C@H]3C[C@@H]([C@@H]2C/C=C\CCCC(=O)O)C3(C)C)cc1 [3 (b), 7-[(1S,2S,3S,5R)-3-(4-ethylphenyl)sulfonylamino-6,6-dimethylbicyclo[3.1.1]heptan-2-yl]-5Z-heptenoic]",570
12,"CC(C)(C)c1ccc(S(=O)(=O)N[C@H]2C[C@H]3C[C@@H]([C@@H]2C/C=C\CCCC(=O)O)C3(C)C)cc1 [3 (c), 7-[(1S,2S,3S,5R)-3-(4-tert-butylphenyl)sulfonylamino-6,6-dimethylbicyclo[3.1.1]heptan-2-yl]-5Z-heptenoic acid]",6300
13,"COc1ccc(S(=O)(=O)N[C@H]2C[C@H]3C[C@@H]([C@@H]2C/C=C\CCCC(=O)O)C3(C)C)cc1 [3 (d), 7-[(1S,2S,3S,5R)-3-(4-methoxyphenyl)sulfonylamino-6,6-dimethylbicyclo[3.1.1]heptan-2-yl]-5Z-heptenoic acid]",820
14,"CC1(C)[C@H]2C[C@H](NS(=O)(=O)c3ccc(F)cc3)[C@@H](C/C=C\CCCC(=O)O)[C@@H]1C2 [3 (e), 7-[(1S,2S,3S,5R)-3-(4-fluorophenyl)sulfonylamino-6,6-imethylbicyclo[3.1.1]heptan-2-yl]-5Z-heptenoic]",2600
15,"CC1(C)[C@H]2C[C@H](NS(=O)(=O)c3ccc(Cl)cc3)[C@@H](C/C=C\CCCC(=O)O)[C@@H]1C2 [3 (f), 7-[(1S,2S,3S,5R)-3-(4-chlorophenyl)sulfonylamino-6,6-imethylbicyclo[3.1.1]heptan-2-yl]-5Z-heptenoic]",750
16,"CC1(C)[C@H]2C[C@H](NS(=O)(=O)c3ccc(I)cc3)[C@@H](C/C=C\CCCC(=O)O)[C@@H]1C2 [3 (g), 7-[(1S,2S,3S,5R)-3-(4-iodophenyl)sulfonylamino-6,6-dimethylbicyclo[3.1.1]heptan-2-yl]-5Z-heptenoic]",54
17,"CC1(C)[C@H]2C[C@H](NS(=O)(=O)c3ccc([N+](=O)[O-])cc3)[C@@H](C/C=C\CCCC(=O)O)[C@@H]1C2 [3 (h), 7-[(1S,2S,3S,5R)-3-(4-nitrophenyl)sulfonylamino-6,6-dimethylbicyclo[3.1.1]heptan-2-yl]-5Z-heptenoic]",210
18,"CC1(C)[C@H]2C[C@H](NS(=O)(=O)c3ccc4ccccc4c3)[C@@H](C/C=C\CCCC(=O)O)[C@@H]1C2 [3 (i), 7-[(1S,2S,3S,5R)-3-(2-naphtyl)sulfonylamino-6,6-dimethylbicyclo[3.1.1]heptan-2-yl]-5Z-heptenoic]",90
19,"CCCCS(=O)(=O)N[C@H]1C[C@H]2C[C@@H]([C@@H]1C/C=C\CCCC(=O)O)C2(C)C [3 (j), 7-[(1S,2S,3S,5R)-3-butylsulfonylamino-6,6-dimethylbicyclo[3.1.1]heptan-2-yl]-5Z-heptenoic acid]",5000
20,"CCCCCCS(=O)(=O)N[C@H]1C[C@H]2C[C@@H]([C@@H]1C/C=C\CCCC(=O)O)C2(C)C [3 (k), 7-[(1S,2S,3S,5R)-3-hexylsulfonylamino-6,6-dimethylbicyclo[3.1.1]heptan-2-yl]-5Z-heptenoic acid]",25
21,"CCCCCCCCS(=O)(=O)N[C@H]1C[C@H]2C[C@@H]([C@@H]1C/C=C\CCCC(=O)O)C2(C)C [3 (l), 7-[(1S,2S,3S,5R)-3-octylsulfonylamino-6,6-dimethylbicyclo[3.1.1]heptan-2-yl]-5Z-heptenoic acid]",360
22,"CC1(C)[C@H]2C[C@H](NS(=O)(=O)CCc3ccccc3)[C@@H](C/C=C\CCCC(=O)O)[C@@H]1C2 [3 (m), 7-[(1S,2S,3S,5R)-3-(2-phenylethyl)sulfonylamino-6,6-dimethylbicyclo[3.1.1]heptan-2-yl]-5Z-heptenoic acid]",5.4
23,"CC1(C)[C@H]2C[C@H](NS(=O)(=O)CCC3CCCCC3)[C@@H](C/C=C\CCCC(=O)O)[C@@H]1C2 [3 (n), 7-[(1S,2S,3S,5R)-3-(2-cyclohexylethyl)sulfonylamino-6,6-dimethylbicyclo[3.1.1]heptan-2-yl]-5Z-heptenoic acid]",120
24,"Cc1ccc(S(=O)(=O)N[C@H]2C3CCC(CC3)[C@@H]2C/C=C\CCCC(=O)O)cc1 [5 (d), 7-[(2S,3S)-3-tosylaminobicyclo[2.2.2]octan-2-yl]-5Z-heptenoic acid]",2100
25,"O=C(O)CCC/C=C\CC1CCCCC1NS(=O)(=O)c1ccc(Br)cc1 (stereo not drawn) [5 (e), 7-[2-(4-bromophenylsulfonylamino)cyclohexyl]-5Z-heptenoic acid]",60
26,"O=C(O)CCC/C=C\CC1CCCCC1NS(=O)(=O)c1ccc(Br)cc1 (stereo not drawn) [5 (f), 7-[2-(4-bromophenylsulfonylamino)cyclohexyl]-5Z-heptenoic acid]",5000
27,"O=C(O)CCCC=CC1C2CCC(C2)C1CNS(=O)(=O)c1ccc(Br)cc1 [5 (i), 6-[(1S,2S,3S,4R)-3-(4-bromophenylsulfonylaminomethyl)bicyclo[2.2.1]heptan-2-yl]-5Z-hexenoic acid]",6500
28,"CC1(C)[C@H]2C[C@H](NS(=O)(=O)c3ccc(Br)cc3)[C@@H](C/C=C\CCCC(=O)O)[C@@H]1C2 [Example 2, 7-[(1S,2S,3S,5R)-3-(4-bromophenyl)sulfonylamino-6,6-dimethylbicyclo [3.1.1]heptan-2-yl]-5Z-heptenoic acid]",440
29,"Cc1ccc(S(=O)(=O)N[C@H]2[C@H]3CC[C@H](C3)[C@@H]2C/C=C\CCCC(=O)O)cc1 [Example 4, 7-[(1R,2S,3S,4S)-3-tosylaminobicyclo[2.2.1]heptan-2-yl]-5Z-heptenoic acid]",3400

# Same assay, conditions: Table II; 5 nM [^3 H]-PGE2, rat uterus crude membrane fraction, pH 6.0, 1 hour at room temperature; read-out: IC50, inhibitory effects of PGE2 receptor binding in rat
row,SMILES,IC50 [nM]
1,"O=C(O)CCC/C=C\C[C@H]1CCCC[C@@H]1NS(=O)(=O)/C=C/c1ccccc1 (relative stereo) [6 (19), 7-[(1R*, 2S*)-2-(2-phenylvinylsulfonylamino)cyclohexyl]-5Z-heptenoic]",230
2,"O=C(O)CCC/C=C\[C@@H]1CCC[C@@H](NS(=O)(=O)/C=C/c2ccccc2)C1 (relative stereo) [6 (21), 6-[(1R*, 3R*)-3-(2-phenylvinylsulfonylamino)cyclohexyl]-5Z-hexenoic]",600
3,"CC1(C)[C@H]2C[C@H](NS(=O)(=O)/C=C/c3ccc(F)cc3)[C@@H](C/C=C\CCCC(=O)O)[C@@H]1C2 [6 (2), 7-[(1S, 2S, 3S, 5R)-3-[2-(4-fluorophenyl)vinylsulfonylamino]-6,6-dimethylbicyclo[3.1.1]heptan-2-yl]-5Z-heptenoic acid]",3.6
4,CCCC/C=C/S(=O)(=O)N[C@H]1C[C@H]2C[C@@H]([C@@H]1C/C=C\CCCC(=O)O)C2(C)C [6 (14)],800
5,"O=C(O)CCC/C=C\[C@@H]1[C@H]2CC[C@H](C2)[C@H]1CNS(=O)(=O)/C=C/c1ccccc1 [6 (18), 6-[(1S, 2S, 3R, 4R)-3-(2-phenylvinylsulfonylaminomethyl)bicyclo[2.2.1]heptan-2-yl]-5Z-hexenoic acid]",17
6,"O=C(O)CCC/C=C\[C@H]1CC[C@@H](NS(=O)(=O)/C=C/c2ccccc2)C1 [6 (22), 6-[(1S, 3R)-3-(2-phenylvinylsulfonyl-amino)cyclopentyl]-5Z-hexenoic]",1800
7,"CC1(C)[C@H]2C[C@H](NS(=O)(=O)/C=C/c3ccccc3)[C@@H](C/C=C/CCCC(=O)O)[C@@H]1C2 [6 (26), 7-[(1S, 2S, 3S, 5R)-3-(2-phenylvinylsulfonylamino)-6,6-dimethylbicyclo [3.1.1]heptan-2-yl]-5E-heptenoic acid]",38
